Reference: ChEMBL document CHEMBL1125981, “Enantioselective total synthesis and pharmacologic profile of 12-deoxy-12(S)-methyl leukotriene B4” (Bioorg Med Chem Lett, 1991)
pIC50: −log10 of the molar value.

Columns and labels:
[1] = biological target: Leukotriene B4 receptor 1 (Homo sapiens, UniProt Q15722); assay: Compound was tested for its antagonist activity in a LTB4 human neutrophil receptor binding assay using the natural ligand itself
Homo sapiens = species: Homo sapiens; assay: Compound was tested for its ability to inhibit human neutrophil degranulation induced by LTB4; type: functional

Chain of Leukotriene B4 receptor 1 (Q15722 whole entry): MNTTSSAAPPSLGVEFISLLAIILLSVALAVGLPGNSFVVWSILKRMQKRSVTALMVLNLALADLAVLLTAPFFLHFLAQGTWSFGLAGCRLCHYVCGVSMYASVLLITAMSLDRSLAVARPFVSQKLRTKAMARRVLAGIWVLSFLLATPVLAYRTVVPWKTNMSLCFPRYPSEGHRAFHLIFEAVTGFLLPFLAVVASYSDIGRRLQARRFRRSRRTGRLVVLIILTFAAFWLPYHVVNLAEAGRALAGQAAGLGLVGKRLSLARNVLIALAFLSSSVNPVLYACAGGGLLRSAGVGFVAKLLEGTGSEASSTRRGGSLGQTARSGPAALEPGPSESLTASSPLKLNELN

Compound: CCCCC/C=C\C[C@@H](C)/C=C/C=C/C=C/[C@@H](O)CCCC(=O)O
- pIC50 [1]: 5.42
- pIC50 (Homo sapiens): 5.47
